Assay results: patent publication US20250179052A1, “PYRIMIDINYL-OXY-QUINOLINE BASED HERBICIDAL COMPOUNDS” (SYNGENTA CROP PROTECTION AG, priority 2022, published 2025)

Assays:
Details in all cases: 250 g/ha, evaluated after 13 days, five-point scale
[1] = tested on: Ipomoea hederacea (IPOHE); assay: Post-emergence herbicidal glasshouse test; assay type: in vivo
[2] = tested on: Ipomoea hederacea (IPOHE); assay: Pre-emergence herbicidal glasshouse test; assay type: in vivo
AMAPA [3] = assay: Post-emergence herbicidal glasshouse test; assay type: in vivo, Amaranthus tuberculatus
AMAPA [4] = assay: Pre-emergence herbicidal glasshouse test; assay type: in vivo, Amaranthus tuberculatus
[5] = tested on: Amaranthus retoflexus (AMARE); assay: Post-emergence herbicidal glasshouse test; assay type: in vivo
[6] = tested on: Echinochloa crus-galli (ECHCG); assay: Pre-emergence herbicidal glasshouse test; assay type: in vivo
[7] = tested on: Echinochloa crus-galli (ECHCG); assay: Post-emergence herbicidal glasshouse test; assay type: in vivo
[8] = tested on: Amaranthus retoflexus (AMARE); assay: Pre-emergence herbicidal glasshouse test; assay type: in vivo

SMILES | percentage damage caused to the plant, IPOHE [1] | percentage damage caused to the plant, IPOHE [2] | percentage damage caused to the plant, AMAPA (AMAPA [3]) | percentage damage caused to the plant, AMAPA (AMAPA [4]) | percentage damage caused to the plant, AMARE [5] | percentage damage caused to the plant, ECHCG [6] | percentage damage caused to the plant, ECHCG [7] | percentage damage caused to the plant, AMARE [8]
Cc1ccc(Oc2ncc(Cl)cn2)c2cnc(C(F)(F)F)nc12 [Compound 1.028] | 2 (2=21-40%) | 1 (1=0-20%) | 3 (3=41-60%) | 5 (5=81-100%) | 2 (2=21-40%) | 2 (2=21-40%) | 1 (1=0-20%) | 5 (5=81-100%)
Cc1ccc(Oc2ncc(F)cn2)c2ccc(C(F)(F)F)nc12 [Compound 1.029] | 2 (2=21-40%) | 1 (1=0-20%) | 4 (4=61-80%) | 3 (3=41-60%) | 3 (3=41-60%) | 1 (1=0-20%) | 1 (1=0-20%) | 2 (2=21-40%)
COc1ncc2c(Oc3ncc(F)cn3)ccc(Br)c2n1 [Compound 1.030] | 1 (1=0-20%) | 1 (1=0-20%) | 3 (3=41-60%) | 1 (1=0-20%) | 2 (2=21-40%) | 1 (1=0-20%) | 1 (1=0-20%) | 1 (1=0-20%)
COc1ncc2c(Oc3ncc(Br)cn3)ccc(Br)c2n1 [Compound 1.031] | 1 (1=0-20%) | 1 (1=0-20%) | 1 (1=0-20%) | 1 (1=0-20%) | 1 (1=0-20%) | 1 (1=0-20%) | 1 (1=0-20%) | 1 (1=0-20%)
FC(F)(F)c1ccc2c(Oc3ncc(Cl)cn3)ccc(Br)c2n1 [Compound 1.032] | 1 (1=0-20%) | 1 (1=0-20%) | 2 (2=21-40%) | 1 (1=0-20%) | 2 (2=21-40%) | 1 (1=0-20%) | 1 (1=0-20%) | 1 (1=0-20%)
Fc1cnc(Oc2ccc(Br)c3nc(C(F)(F)F)ccc23)nc1 [Compound 1.033] | 1 (1=0-20%) | 1 (1=0-20%) | 1 (1=0-20%) | 3 (3=41-60%) | 2 (2=21-40%) | 1 (1=0-20%) | 1 (1=0-20%) | 3 (3=41-60%)
FC(F)(F)c1ccc2c(Oc3ncc(Br)cn3)ccc(Br)c2n1 [Compound 1.034] | 1 (1=0-20%) | 1 (1=0-20%) | 1 (1=0-20%) | 1 (1=0-20%) | 1 (1=0-20%) | 1 (1=0-20%) | 1 (1=0-20%) | 1 (1=0-20%)
Cc1ccc(Oc2ncc(Cl)cn2)c2ccc(C(F)(F)F)nc12 [Compound 1.035] | 2 (2=21-40%) | 1 (1=0-20%) | 3 (3=41-60%) | 2 (2=21-40%) | 3 (3=41-60%) | 1 (1=0-20%) | 1 (1=0-20%) | 2 (2=21-40%)
Cc1cnc(Oc2ccc(C)c3nc(C(F)(F)Cl)ncc23)nc1 [Compound 1.036] | 1 (1=0-20%) | 1 (1=0-20%) | 3 (3=41-60%) | 3 (3=41-60%) | 2 (2=21-40%) | 1 (1=0-20%) | 1 (1=0-20%) | 4 (4=61-80%)
Cc1cnc(Oc2ccc(Cl)c3nc(C(F)(F)Cl)ncc23)nc1 [Compound 1.037] | 1 (1=0-20%) | 1 (1=0-20%) | 2 (2=21-40%) | 4 (4=61-80%) | 2 (2=21-40%) | 1 (1=0-20%) | 1 (1=0-20%) | 5 (5=81-100%)
Cc1nc(C(F)(F)Cl)nc2cccc(Oc3ncc(F)cn3)c12 [Compound 1.038] | 3 (3=41-60%) | 5 (5=81-100%) | 5 (5=81-100%) | 5 (5=81-100%) | 4 (4=61-80%) | 4 (4=61-80%) | 3 (3=41-60%) | 5 (5=81-100%)
FC(F)c1ncc2c(Oc3ncc(Br)cn3)ccc(Cl)c2n1 [Compound 1.039] | 1 (1=0-20%) | 1 (1=0-20%) | 2 (2=21-40%) | 1 (1=0-20%) | 2 (2=21-40%) | 1 (1=0-20%) | 1 (1=0-20%) | 1 (1=0-20%)
Fc1cnc(Oc2cccc3nc(C(F)(F)F)ccc23)nc1 [Compound 1.042] | 4 (4=61-80%) | 5 (5=81-100%) | 5 (5=81-100%) | 5 (5=81-100%) | 5 (5=81-100%) | 5 (5=81-100%) | 4 (4=61-80%) | 5 (5=81-100%)
Fc1cnc(Oc2ccc(Cl)c3nc(C(F)(F)Cl)ncc23)nc1 [Compound 1.043] | 2 (2=21-40%) | 1 (1=0-20%) | 3 (3=41-60%) | 4 (4=61-80%) | 3 (3=41-60%) | 1 (1=0-20%) | 1 (1=0-20%) | 4 (4=61-80%)
Fc1cnc(Oc2ccc(Cl)c3nc(C(F)F)ncc23)nc1 [Compound 1.046] | 2 (2=21-40%) | 1 (1=0-20%) | 1 (1=0-20%) | 4 (4=61-80%) | 2 (2=21-40%) | 1 (1=0-20%) | 1 (1=0-20%) | 5 (5=81-100%)
Cc1ccc(Oc2ncc(F)cn2)c2cnc(C(F)(F)Cl)nc12 [Compound 1.049] | 2 (2=21-40%) | 1 (1=0-20%) | 3 (3=41-60%) | 1 (1=0-20%) | 2 (2=21-40%) | 1 (1=0-20%) | 1 (1=0-20%) | 1 (1=0-20%)
Cc1nc(C(F)F)nc2cccc(Oc3ncc(Br)cn3)c12 [Compound 1.051] | 1 (1=0-20%) | 1 (1=0-20%) | 1 (1=0-20%) | 1 (1=0-20%) | 1 (1=0-20%) | 1 (1=0-20%) | 1 (1=0-20%) | 1 (1=0-20%)
Cc1nc(C(F)F)nc2cccc(Oc3ncc(F)cn3)c12 [Compound 1.052] | 2 (2=21-40%) | 1 (1=0-20%) | 1 (1=0-20%) | 1 (1=0-20%) | 1 (1=0-20%) | 2 (2=21-40%) | 1 (1=0-20%) | 2 (2=21-40%)
FC(F)c1ncc2c(Oc3ncc(Cl)cn3)ccc(Cl)c2n1 [Compound 1.054] | 1 (1=0-20%) | 1 (1=0-20%) | 2 (2=21-40%) | 5 (5=81-100%) | 2 (2=21-40%) | 2 (2=21-40%) | 1 (1=0-20%) | 5 (5=81-100%)
